Measured values taken from US20170137410A1, “FUSED CYCLOALKYL-PYRIMIDINE COMPOUNDS AND USES THEREOF” (Medivation Technologies, Inc., priority 2014, published 2017).

Columns and labels:
Format in all cases: biochemical
Trk A = Trk A (Homo sapiens, UniProt P04629); test: HotSpot kinase assay against Trk A; conditions: HotSpot 33P assay, ATP 10 μM-30 μM
Experimental: (§1) Kinase assays were performed using test compounds against a panel of Trk kinases: Trk A; Trk B; and Trk C. Each compound was tested at a concentration of 0.1 μM in single duplicate mode against the three kinases. Compounds were prepared as 10 mM stock solutions in DMSO prior to use in the assay. The control compound, staurosporine, was tested at 10 concentrations with three-fold serial dilution starting at 20 μM. IC50 values and curve fits were obtained using Prism (GraphPad Software). IC50 values were determined for staurosporine for comparison.
(§2) The screening was performed using the “HotSpot” assay platform. The assay measures the conversion of a peptide substrate to ^33P-labelled phosphorylated product. Briefly, specific kinase/substrate pairs along with required cofactors were prepared in reaction buffer. Specifically, the substrate was prepared in reaction buffer (20 mM Hepes, pH 7.5; 10 mM MgCl2; 1 mM EGTA; 0.02% Brij35; 0.02 mg/mL BSA; 0.1 mM Na3VO4; 2 mM DTT; 1% DMSO), followed by delivery of any required cofactor to the resulting substrate solution. The corresponding kinase was delivered into the substrate solution and the reaction mixture was mixed gently. Compound was delivered into the reaction mixture, followed 15-20 min later by addition of a mixture of ATP (Sigma, St. Louis Mo.) and ^33P ATP (specific activity 0.01 μCi/μL final; Perkin Elmer, Waltham, Mass.) to a final concentration of 10 μM-30 μM to initiate the reaction. Reactions were carried out at RT for 120 min, followed by spotting of the reactions onto P81 ion exchange filter paper (Whatman #3698-915; Whatman Inc., Piscataway, N.J.). Unbound phosphate was removed by extensive washing of filters in 0.75% phosphoric acid. […] The percent of enzyme inhibition was calculated based on the percent of remaining kinase activity.

Trk B = Trk B (Homo sapiens, UniProt Q16620); test: HotSpot kinase assay against Trk B; conditions: HotSpot 33P assay, ATP 10 μM-30 μM
Sequence of Trk B (Q16620 32-822): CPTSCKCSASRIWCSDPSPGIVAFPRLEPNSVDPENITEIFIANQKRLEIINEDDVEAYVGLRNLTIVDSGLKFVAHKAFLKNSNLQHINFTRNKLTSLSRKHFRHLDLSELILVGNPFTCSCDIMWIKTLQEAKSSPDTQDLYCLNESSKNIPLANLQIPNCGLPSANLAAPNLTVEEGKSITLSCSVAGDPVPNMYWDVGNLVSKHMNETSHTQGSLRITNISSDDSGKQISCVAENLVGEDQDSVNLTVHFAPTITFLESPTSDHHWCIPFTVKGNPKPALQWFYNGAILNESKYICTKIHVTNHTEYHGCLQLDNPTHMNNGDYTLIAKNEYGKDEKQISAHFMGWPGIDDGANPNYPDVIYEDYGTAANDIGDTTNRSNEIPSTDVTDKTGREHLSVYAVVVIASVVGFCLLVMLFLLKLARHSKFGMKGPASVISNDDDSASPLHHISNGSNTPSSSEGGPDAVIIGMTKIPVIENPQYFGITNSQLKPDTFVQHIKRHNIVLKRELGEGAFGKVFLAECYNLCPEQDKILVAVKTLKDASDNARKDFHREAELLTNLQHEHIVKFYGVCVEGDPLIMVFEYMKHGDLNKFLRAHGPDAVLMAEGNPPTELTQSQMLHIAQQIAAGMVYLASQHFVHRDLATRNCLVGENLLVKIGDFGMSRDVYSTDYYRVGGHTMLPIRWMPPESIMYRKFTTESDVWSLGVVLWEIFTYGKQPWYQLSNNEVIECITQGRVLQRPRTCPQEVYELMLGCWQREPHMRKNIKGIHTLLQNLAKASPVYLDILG
Experimental: as §1, §2

Trk C = Trk C (Homo sapiens, UniProt Q16288); test: HotSpot kinase assay against Trk C; conditions: HotSpot 33P assay, ATP 10 μM-30 μM
Sequence of Trk C (Q16288 32-839): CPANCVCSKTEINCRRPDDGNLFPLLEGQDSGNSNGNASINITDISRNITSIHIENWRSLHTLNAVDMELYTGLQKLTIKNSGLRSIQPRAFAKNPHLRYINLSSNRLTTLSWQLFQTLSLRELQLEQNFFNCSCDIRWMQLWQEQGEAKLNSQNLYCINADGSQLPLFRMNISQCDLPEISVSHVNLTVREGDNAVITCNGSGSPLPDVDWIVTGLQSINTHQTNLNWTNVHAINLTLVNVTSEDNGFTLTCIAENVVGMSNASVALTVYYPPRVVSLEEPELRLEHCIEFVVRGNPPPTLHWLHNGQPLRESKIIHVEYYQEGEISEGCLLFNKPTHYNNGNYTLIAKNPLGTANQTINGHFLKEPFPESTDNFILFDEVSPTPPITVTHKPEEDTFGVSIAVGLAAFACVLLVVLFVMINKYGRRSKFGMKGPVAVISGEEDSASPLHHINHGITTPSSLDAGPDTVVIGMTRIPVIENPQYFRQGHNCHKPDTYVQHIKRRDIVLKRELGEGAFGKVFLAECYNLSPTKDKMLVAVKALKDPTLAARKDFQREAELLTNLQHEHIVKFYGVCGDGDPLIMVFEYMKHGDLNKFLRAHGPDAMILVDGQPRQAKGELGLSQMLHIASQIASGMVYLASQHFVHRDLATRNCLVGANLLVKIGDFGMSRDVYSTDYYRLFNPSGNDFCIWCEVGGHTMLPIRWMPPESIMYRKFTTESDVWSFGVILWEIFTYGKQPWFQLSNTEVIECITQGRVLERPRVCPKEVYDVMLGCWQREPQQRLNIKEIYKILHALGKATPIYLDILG
Experimental: as §1, §2

activated IGF-1R = target: T1, activated IGF-1R (Homo sapiens, UniProt P08069); test: In vitro IGF-1R enzymatic assay (ADP-Glo); conditions: ATP 100 μM; for inhibition at 3 µM: compound 3 μM; for inhibition at 10 µM: compound 10 μM; for inhibition at 30 µM: compound 30 μM; for inhibition at 1 µM: compound 1 μM
T1 construct: purchased Millipore 14-802
T1 sequence (P08069 31-1367): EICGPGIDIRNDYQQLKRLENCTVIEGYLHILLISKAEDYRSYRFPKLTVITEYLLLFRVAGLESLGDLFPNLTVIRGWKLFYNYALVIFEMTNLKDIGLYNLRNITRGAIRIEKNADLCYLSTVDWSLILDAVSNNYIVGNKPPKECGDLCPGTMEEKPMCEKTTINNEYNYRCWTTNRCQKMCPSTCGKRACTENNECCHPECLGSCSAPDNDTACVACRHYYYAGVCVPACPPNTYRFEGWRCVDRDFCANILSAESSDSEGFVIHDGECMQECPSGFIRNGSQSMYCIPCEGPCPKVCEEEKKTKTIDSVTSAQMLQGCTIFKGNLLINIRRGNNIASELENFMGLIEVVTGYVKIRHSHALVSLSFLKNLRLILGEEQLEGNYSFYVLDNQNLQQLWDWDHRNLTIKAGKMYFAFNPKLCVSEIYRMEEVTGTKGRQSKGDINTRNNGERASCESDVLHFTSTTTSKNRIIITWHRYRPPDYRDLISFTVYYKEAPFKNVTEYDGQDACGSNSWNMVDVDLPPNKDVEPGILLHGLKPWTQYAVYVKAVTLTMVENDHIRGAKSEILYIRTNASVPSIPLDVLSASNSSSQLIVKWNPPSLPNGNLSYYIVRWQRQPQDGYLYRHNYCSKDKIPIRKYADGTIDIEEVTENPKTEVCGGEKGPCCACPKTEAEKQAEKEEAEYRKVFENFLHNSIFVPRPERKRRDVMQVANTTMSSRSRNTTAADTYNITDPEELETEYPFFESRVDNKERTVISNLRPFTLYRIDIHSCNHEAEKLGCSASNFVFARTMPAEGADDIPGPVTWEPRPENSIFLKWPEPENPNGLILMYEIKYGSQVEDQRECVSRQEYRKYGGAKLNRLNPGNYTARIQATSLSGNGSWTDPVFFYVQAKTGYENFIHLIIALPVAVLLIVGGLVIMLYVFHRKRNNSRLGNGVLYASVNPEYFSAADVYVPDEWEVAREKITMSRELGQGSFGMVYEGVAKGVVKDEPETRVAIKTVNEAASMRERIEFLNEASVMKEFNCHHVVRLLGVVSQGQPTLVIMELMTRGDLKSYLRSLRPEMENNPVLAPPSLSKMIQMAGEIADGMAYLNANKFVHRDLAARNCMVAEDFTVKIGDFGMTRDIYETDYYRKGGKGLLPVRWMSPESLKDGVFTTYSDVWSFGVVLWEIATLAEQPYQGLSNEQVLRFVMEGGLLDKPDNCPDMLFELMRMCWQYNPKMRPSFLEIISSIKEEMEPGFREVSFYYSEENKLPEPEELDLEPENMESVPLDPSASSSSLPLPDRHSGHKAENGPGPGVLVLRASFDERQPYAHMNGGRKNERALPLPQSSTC
Experimental: (§3) Inhibition of IGF-1R and IR kinases by compounds described herein were tested. The IC50 values were measured in vitro using an ADP-Glo kinase assay Kit (Promega). For the IGF-1R assay, active recombinant IGF-1R (Millipore #14-802) was used at 1 ng/reaction, the substrate IGF-1R tide (Millipore #12-527) was used at 125 μM and ATP was used at 100 μM. For the IR assay, active recombinant IR (Millipore #14-803) was used at 1 ng/reaction, the substrate Axl tide (Millipore #12-516) was used at 125 μM and ATP at 50 μM. Kinase reactions in both assays were conducted at 30° C. for 20 min with increasing concentrations of the test compounds.
(§4) The assay results as the percent inhibition of binding are presented in Tables B2 and B3 for IGF-1R and IR respectively.

activated IR = target: T2, activated IR (Homo sapiens, UniProt P06213); test: In vitro IR enzymatic assay (ADP-Glo); conditions: ATP 50 μM; for inhibition at 1 µM: compound 1 μM; for inhibition at 3 µM: compound 3 μM; for inhibition at 30 µM: compound 30 μM
T2 construct: purchased Millipore 14-803
T2 sequence (P06213 28-1382): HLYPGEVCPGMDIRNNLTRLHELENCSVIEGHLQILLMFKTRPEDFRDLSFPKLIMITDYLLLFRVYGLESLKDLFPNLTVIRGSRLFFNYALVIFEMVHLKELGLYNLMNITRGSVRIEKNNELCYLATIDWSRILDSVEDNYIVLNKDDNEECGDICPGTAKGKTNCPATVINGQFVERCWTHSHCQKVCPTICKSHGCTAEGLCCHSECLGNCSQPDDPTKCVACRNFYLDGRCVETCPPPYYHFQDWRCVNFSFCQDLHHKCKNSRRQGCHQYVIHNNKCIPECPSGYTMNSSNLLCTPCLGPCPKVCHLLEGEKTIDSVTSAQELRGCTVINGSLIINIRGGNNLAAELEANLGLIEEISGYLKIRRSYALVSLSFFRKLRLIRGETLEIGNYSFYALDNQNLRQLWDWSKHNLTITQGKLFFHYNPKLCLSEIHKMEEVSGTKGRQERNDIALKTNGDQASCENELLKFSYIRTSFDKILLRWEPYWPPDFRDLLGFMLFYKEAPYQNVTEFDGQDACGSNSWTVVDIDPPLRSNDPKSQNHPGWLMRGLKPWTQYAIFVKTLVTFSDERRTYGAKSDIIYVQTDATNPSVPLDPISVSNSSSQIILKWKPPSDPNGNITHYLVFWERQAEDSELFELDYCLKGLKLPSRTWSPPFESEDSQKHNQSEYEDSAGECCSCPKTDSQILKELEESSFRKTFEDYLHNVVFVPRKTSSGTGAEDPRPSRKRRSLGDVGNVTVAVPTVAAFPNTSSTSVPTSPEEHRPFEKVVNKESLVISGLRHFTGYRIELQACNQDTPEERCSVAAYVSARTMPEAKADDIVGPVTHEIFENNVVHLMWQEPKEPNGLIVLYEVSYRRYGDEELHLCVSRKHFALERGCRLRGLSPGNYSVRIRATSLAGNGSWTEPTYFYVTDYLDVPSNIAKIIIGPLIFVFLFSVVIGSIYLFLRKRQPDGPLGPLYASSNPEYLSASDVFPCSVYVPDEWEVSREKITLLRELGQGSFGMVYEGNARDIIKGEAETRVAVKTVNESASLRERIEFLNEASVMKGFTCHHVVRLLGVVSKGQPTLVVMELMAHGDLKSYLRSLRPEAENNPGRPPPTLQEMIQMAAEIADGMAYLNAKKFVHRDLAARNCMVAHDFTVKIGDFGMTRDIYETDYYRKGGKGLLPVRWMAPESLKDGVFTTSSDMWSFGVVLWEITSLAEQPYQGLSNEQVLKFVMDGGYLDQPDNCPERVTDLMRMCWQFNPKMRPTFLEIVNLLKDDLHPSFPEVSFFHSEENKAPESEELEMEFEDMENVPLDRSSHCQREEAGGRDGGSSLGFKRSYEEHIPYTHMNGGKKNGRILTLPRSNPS
Experimental: as §3, §4

Sequence of Trk A (P04629 33-796): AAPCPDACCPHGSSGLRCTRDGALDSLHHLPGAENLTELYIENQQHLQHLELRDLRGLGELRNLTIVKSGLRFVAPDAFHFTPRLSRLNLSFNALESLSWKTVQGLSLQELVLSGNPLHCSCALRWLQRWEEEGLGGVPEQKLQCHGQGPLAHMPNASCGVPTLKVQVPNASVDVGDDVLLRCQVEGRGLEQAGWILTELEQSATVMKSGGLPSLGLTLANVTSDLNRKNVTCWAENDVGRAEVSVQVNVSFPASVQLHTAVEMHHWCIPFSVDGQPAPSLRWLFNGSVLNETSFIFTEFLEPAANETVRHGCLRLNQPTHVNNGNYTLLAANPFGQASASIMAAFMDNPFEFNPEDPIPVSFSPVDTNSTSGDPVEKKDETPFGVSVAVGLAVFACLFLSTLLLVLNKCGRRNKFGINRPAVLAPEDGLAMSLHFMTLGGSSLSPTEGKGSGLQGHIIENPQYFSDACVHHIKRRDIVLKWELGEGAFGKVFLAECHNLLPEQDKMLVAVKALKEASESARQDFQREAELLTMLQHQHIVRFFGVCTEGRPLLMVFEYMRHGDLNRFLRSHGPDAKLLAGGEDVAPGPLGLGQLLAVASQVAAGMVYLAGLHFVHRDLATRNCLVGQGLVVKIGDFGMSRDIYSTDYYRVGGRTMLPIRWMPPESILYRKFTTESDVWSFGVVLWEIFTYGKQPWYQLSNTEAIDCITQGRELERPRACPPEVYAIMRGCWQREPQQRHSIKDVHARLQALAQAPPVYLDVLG

SMILES	IC50 (Trk A)	IC50 (Trk B)	IC50 (Trk C)	inhibition at 3 µM (activated IGF-1R)	inhibition at 10 µM (activated IGF-1R)	inhibition at 30 µM (activated IGF-1R)	inhibition at 1 µM (activated IR)	inhibition at 3 µM (activated IR)	inhibition at 30 µM (activated IR)	inhibition at 1 µM (activated IGF-1R)
CN(C)C(=O)[C@H]1CCCN1c1nc2c(c(Nc3cc(C4CCOCC4)[nH]n3)n1)CCC2 [91a, (R)—N,N-dimethyl-1-(4-((5-(tetrahydro-2H-pyran-4-yl)-1H-pyrazol-3-yl)amino)-6,7-dihydro-5H-cyclopenta[d]pyrimidin-2-yl)pyrrolidine-2-carboxamide]	1440 nM	403 nM	180 nM	14%	14%	38%	5%	16%	45%	6%
CN(C)C(=O)[C@@H]1CCCN1c1nc2c(c(Nc3cc(C4CCOCC4)[nH]n3)n1)CCC2 [91b, (S)-N,N-dimethyl-1-(4-(5-(tetrahydro-2H-pyran-4-yl)-1H-pyrazol-3-ylamino)-6,7-dihydro-5H-cyclopenta[d]pyrimidin-2-yl)pyrrolidine-2-carboxamide]	6310 nM	902 nM	362 nM	4%	-2%	21%	1%	-2%	7%	0%
CN1CCN(C(=O)[C@@H]2CCCN2c2nc3c(c(Nc4cc(C5CCCC5)n[nH]4)n2)CCC3)CC1=O [136b, 4-[(2S)-1-[4-[(3-cyclopentyl-1H-pyrazol-5-yl)amino]-6,7-dihydro-5H-cyclopenta[d]pyrimidin-2-yl]pyrrolidine-2-carbonyl]-1-methyl-piperazin-2-one]	1730 nM	106 nM	42.4 nM	12%	28%	63%	-2%	21%	72%	15%

Compounds with a lower IC50 (Trk A), results first:

IC50 (Trk A)	IC50 (Trk B)	IC50 (Trk C)	inhibition at 3 µM (activated IGF-1R)	inhibition at 10 µM (activated IGF-1R)	inhibition at 30 µM (activated IGF-1R)	inhibition at 1 µM (activated IR)	inhibition at 3 µM (activated IR)	inhibition at 30 µM (activated IR)	inhibition at 1 µM (activated IGF-1R)	SMILES
878 nM	246 nM	105 nM	62%	83%	95%	37%	61%	96%		CC(C)c1cc(Nc2nc(N3CCC[C@@H]3C(=O)N3CCCC3)nc3c2CCC3)n[nH]1 [138a, (R)-(1-(4-((5-isopropyl-1H-pyrazol-3-yl)amino)-6,7-dihydro-5H-cyclopenta[d]pyrimidin-2-yl)pyrrolidin-2-yl)(pyrrolidin-1-yl)methanone]
32 nM	90 nM	44.4 nM				80%			73%	CN1CCN(C(=O)[C@H]2CCCN2c2nc3c(c(Nc4cc(C5CCCC5)[nH]n4)n2)CCC3)CC1 [134a, (R)-(1-(4-(5-cyclopentyl-1H-pyrazol-3-ylamino)-6,7-dihydro-5H-cyclopenta[d]pyrimidin-2-yl)pyrrolidin-2-yl)(4-methylpiperazin-1-yl)methanone]
12 nM	1 nM	2.5 nM	14%	43%	82%	11%	26%	88%	12%	CC1(C)CCN(C(=O)[C@@H]2CCCN2c2nc3c(c(Nc4cc(C5CCCC5)n[nH]4)n2)CCC3)CC1 [135b, [(2S)-1-[4-[(3-cyclopentyl-1H-pyrazol-5-yl)amino]-6,7-dihydro-5H-cyclopenta[d]pyrimidin-2-yl]pyrrolidin-2-yl]-(4,4-dimethyl-1-piperidyl)methanone]
